Measurements taken from ChEMBL document CHEMBL5247602, “Developing a Naïve Bayesian Classification Model with PI3Kγ structural features for virtual screening against PI3Kγ: Combining molecular docking and pharmacophore based on multiple PI3Kγ conformations” (Eur J Med Chem, 2022).

Legend:
[1] = target: T1, Phosphatidylinositol 4,5-bisphosphate 3-kinase catalytic subunit gamma isoform (Homo sapiens, UniProt P48736); assay: Inhibition of PI3Kgamma (unknown origin) at 10 uM preincubated for 10 mins followed by ATP addition and measured after 60 mins by ADP-Glo assay relative to control; settings: time 70.0 min
Target sequence in this assay (P48736 whole entry, looked up, canonical isoform): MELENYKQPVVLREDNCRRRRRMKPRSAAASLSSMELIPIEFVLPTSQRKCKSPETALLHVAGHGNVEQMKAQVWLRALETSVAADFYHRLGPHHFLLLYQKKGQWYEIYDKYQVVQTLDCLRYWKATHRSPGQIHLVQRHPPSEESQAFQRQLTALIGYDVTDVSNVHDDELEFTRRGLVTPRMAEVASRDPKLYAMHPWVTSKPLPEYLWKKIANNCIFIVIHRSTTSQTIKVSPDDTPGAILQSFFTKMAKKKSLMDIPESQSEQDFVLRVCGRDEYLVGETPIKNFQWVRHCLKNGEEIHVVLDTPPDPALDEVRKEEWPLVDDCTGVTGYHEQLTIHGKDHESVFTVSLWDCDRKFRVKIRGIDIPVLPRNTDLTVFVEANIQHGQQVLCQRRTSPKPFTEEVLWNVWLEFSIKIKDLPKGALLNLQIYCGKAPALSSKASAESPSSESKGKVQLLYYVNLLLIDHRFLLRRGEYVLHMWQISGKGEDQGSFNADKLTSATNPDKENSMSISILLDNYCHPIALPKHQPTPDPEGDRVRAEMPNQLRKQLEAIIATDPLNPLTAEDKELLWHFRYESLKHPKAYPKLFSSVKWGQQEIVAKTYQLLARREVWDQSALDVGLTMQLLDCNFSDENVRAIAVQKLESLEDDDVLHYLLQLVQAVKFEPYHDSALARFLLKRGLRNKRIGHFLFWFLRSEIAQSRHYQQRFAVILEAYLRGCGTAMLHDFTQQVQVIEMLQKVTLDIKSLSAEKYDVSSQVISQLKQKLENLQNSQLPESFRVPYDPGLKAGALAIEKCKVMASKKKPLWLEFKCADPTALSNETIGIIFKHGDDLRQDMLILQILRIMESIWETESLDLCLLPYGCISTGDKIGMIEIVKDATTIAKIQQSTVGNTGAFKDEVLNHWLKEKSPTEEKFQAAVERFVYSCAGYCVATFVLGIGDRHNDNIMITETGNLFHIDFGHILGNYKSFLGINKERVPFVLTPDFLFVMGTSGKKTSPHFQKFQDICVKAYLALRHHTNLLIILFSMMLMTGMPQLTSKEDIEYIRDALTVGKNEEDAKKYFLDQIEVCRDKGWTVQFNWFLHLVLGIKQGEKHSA

[2] = target: T1, Phosphatidylinositol 4,5-bisphosphate 3-kinase catalytic subunit gamma isoform; assay: Inhibition of PI3Kgamma (unknown origin) preincubated for 10 mins followed by ATP addition and measured after 60 mins by ADP-Glo assay
Target sequence in this assay (P48736 whole entry, canonical isoform): as the sequence (P48736 whole entry, looked up, canonical isoform) above

[3] = target: Phosphatidylinositol 4,5-bisphosphate 3-kinase catalytic subunit alpha isoform (Homo sapiens, UniProt P42336); assay: Inhibition of PI3Kalpha (unknown origin) preincubated for 10 mins followed by ATP addition and measured after 60 mins by ADP-Glo assay
[4] = target: Phosphatidylinositol 4,5-bisphosphate 3-kinase catalytic subunit beta isoform (Homo sapiens, UniProt P42338); assay: Inhibition of PI3Kbeta (unknown origin) preincubated for 10 mins followed by ATP addition and measured after 60 mins by ADP-Glo assay
[5] = target: T2, Phosphatidylinositol 4,5-bisphosphate 3-kinase catalytic subunit delta isoform (Homo sapiens, UniProt O00329); assay: Inhibition of PI3Kdelta (unknown origin) preincubated for 10 mins followed by ATP addition and measured after 60 mins by ADP-Glo assay
T2 sequence (O00329 whole entry): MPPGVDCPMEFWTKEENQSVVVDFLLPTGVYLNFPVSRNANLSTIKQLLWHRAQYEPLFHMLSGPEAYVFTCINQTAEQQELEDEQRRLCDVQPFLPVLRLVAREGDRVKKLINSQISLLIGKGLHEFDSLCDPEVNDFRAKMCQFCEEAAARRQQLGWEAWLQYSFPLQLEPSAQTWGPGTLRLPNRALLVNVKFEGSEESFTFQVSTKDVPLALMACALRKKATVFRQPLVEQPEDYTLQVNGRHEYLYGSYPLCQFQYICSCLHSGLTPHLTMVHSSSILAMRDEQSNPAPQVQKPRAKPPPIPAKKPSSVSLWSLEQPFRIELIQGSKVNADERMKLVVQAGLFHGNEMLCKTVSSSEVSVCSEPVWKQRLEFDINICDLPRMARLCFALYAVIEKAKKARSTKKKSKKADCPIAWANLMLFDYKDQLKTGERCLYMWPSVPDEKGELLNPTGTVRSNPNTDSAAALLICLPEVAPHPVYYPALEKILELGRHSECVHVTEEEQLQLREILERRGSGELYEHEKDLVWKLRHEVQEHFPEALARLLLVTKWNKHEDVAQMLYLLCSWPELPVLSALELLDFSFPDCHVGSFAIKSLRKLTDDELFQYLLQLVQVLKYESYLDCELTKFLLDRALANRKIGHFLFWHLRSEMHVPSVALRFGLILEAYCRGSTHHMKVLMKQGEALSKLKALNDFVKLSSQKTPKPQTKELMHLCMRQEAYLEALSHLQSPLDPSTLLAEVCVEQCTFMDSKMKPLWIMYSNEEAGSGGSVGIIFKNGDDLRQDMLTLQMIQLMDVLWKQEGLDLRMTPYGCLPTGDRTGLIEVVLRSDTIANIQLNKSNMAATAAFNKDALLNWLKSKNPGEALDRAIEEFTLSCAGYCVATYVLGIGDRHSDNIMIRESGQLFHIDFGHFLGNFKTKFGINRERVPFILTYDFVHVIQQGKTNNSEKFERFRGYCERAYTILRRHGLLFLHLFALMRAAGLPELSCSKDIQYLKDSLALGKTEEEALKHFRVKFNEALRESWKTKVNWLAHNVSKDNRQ

RAW264.7 [6] = assay: Inhibition of PI3K/AKT signalling pathway in mouse RAW264.7 cells assessed as reduction in LPS-stimulated phosphorylation of AKT at Ser473 residue preincubated for 6 hrs followed by LPS stimulation for 6 hrs by Western blot analysis; format: cell-based; settings: dose 5-20 µM, time 12.0 hrs
RAW264.7 [7] = assay: Inhibition of PI3K/AKT signalling pathway in mouse RAW264.7 cells assessed as reduction in LPS-stimulated phosphorylation of AKT at Ser473 residue at 5 to 20 uM preincubated with compound followed by LPS stimulation for 6 hrs by Western blot analysis; format: cell-based; settings: dose 5-20 µM, TDE = time-dependent effect
[8] = target: Phosphatidylinositol 4,5-bisphosphate 3-kinase catalytic subunit gamma isoform (Mus musculus) (UniProt Q9JHG7); assay: Inhibition of PI3Kgamma in mouse RAW264 cells assessed as reduction in LPS-stimulated TNFalpha mRNA expression preincubated for 6 hrs followed by LPS addition and measured after 24 hrs by RT-PCR analysis; format: cell-based; settings: RAW264.7, dose 1.2-10 µM, time 30.0 hrs
[9] = target: Phosphatidylinositol 4,5-bisphosphate 3-kinase catalytic subunit gamma isoform (Mus musculus) (UniProt Q9JHG7); assay: Inhibition of PI3Kgamma in mouse RAW264 cells assessed as reduction in LPS-stimulated IL-6 mRNA expression preincubated for 6 hrs followed by LPS addition and measured after 24 hrs by RT-PCR analysis; format: cell-based; settings: RAW264.7, dose 1.2-10 µM, time 30.0 hrs

Phosphatidylinositol 4,5-bisphosphate 3-kinase catalytic subunit gamma isoform (Mus musculus), sequence (Q9JHG7 whole entry, looked up, canonical isoform): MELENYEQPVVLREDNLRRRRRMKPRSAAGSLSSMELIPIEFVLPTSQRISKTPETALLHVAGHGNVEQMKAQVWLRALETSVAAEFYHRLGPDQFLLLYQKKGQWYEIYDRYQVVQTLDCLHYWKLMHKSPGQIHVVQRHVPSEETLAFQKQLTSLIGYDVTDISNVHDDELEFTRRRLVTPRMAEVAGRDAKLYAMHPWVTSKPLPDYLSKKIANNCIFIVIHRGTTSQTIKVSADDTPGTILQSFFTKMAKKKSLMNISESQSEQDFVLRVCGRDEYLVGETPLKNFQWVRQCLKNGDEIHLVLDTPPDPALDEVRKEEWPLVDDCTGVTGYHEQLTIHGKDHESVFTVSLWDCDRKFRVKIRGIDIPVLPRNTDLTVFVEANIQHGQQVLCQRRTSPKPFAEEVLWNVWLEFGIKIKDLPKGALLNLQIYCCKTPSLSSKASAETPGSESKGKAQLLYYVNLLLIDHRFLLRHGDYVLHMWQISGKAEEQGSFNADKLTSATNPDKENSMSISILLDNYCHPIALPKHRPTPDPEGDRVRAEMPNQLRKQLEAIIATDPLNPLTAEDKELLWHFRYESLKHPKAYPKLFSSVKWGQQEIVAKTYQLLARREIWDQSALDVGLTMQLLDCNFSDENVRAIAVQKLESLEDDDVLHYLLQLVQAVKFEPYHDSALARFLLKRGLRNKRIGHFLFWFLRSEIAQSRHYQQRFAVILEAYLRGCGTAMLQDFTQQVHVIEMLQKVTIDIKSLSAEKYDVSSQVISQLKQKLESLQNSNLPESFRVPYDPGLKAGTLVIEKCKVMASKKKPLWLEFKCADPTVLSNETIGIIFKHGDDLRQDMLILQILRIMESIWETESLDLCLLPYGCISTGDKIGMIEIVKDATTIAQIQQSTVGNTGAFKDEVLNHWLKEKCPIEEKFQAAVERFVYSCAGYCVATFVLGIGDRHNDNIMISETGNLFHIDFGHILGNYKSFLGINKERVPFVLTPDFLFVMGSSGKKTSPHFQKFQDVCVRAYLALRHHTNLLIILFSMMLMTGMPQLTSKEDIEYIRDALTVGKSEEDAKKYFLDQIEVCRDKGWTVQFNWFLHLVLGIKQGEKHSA
Phosphatidylinositol 4,5-bisphosphate 3-kinase catalytic subunit beta isoform, sequence (P42338 whole entry, canonical isoform): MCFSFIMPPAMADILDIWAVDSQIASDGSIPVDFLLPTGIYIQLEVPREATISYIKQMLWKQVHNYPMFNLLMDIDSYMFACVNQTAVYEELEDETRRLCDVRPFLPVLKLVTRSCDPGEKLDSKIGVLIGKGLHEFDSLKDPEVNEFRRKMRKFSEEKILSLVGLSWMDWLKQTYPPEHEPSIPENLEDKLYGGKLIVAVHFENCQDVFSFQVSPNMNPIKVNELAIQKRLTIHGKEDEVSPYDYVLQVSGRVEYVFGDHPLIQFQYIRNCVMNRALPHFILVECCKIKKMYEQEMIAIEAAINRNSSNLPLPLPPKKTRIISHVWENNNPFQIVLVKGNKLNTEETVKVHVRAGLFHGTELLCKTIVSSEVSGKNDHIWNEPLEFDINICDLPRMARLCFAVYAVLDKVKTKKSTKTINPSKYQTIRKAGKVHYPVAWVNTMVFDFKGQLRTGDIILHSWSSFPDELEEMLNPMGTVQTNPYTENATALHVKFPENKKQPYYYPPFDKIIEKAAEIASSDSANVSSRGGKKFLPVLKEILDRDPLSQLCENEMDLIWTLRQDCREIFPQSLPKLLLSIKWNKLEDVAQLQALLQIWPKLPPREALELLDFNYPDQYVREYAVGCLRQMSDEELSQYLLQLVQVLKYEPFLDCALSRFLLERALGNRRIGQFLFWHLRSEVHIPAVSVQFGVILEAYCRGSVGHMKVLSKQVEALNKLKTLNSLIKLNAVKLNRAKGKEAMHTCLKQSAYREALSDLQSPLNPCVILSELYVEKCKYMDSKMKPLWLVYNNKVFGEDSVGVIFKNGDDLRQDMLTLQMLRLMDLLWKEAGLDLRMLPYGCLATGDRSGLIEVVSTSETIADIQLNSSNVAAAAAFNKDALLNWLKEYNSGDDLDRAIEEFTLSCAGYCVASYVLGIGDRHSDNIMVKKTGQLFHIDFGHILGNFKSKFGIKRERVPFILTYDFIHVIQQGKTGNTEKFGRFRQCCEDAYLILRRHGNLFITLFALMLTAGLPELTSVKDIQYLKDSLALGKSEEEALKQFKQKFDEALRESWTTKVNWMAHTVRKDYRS
Phosphatidylinositol 4,5-bisphosphate 3-kinase catalytic subunit alpha isoform, sequence (P42336 whole entry, canonical isoform): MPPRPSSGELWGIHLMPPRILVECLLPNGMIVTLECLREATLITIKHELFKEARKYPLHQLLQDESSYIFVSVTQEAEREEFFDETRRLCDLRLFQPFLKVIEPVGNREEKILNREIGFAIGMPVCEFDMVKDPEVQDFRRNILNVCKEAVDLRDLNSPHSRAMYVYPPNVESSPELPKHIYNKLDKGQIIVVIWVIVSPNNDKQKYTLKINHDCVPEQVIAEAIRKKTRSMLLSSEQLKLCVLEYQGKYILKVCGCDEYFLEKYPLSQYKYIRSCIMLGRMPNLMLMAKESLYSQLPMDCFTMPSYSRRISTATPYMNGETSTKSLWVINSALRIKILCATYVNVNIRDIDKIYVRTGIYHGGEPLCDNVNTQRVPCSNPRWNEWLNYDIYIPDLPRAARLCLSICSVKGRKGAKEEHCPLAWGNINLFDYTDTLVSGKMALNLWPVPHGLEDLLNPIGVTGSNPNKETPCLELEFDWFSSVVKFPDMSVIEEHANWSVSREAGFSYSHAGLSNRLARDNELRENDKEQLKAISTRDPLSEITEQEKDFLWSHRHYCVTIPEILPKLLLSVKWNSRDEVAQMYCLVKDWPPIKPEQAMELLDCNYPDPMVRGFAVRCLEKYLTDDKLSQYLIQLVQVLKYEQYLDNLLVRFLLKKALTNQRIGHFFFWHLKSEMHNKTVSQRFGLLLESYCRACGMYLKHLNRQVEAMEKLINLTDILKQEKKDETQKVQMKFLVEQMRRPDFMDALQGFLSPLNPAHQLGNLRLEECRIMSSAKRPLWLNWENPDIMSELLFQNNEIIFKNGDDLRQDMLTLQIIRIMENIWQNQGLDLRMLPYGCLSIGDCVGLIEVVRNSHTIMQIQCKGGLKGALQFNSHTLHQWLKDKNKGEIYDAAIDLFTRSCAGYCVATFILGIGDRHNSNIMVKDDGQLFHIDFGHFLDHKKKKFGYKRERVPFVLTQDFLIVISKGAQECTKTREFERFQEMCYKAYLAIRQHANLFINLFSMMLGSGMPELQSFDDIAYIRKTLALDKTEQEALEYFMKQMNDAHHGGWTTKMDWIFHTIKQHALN

Row | SMILES | inhibition [1] | IC50 [2] | IC50 [3] | IC50 [4] | IC50 [5] | inhibition (RAW264.7 [6]) | inhibition (RAW264.7 [7]) | inhibition [8] | inhibition [9]
1 | Cn1c(=O)c2cc(S(N)(=O)=O)ccc2n(C)c1=O | 55% | 17.5 µM | – | – | – | – | – | – | –
2 | Cn1c(=O)c2cc(S(=O)(=O)NC3CC3)ccc2n(C)c1=O | 40% | 15.9 µM | – | – | – | – | – | – | –
3 | Cn1c(=O)n(C)c2ccc3ccc4ccc1c2c43 | 80% | 2.45 µM | 5.64 µM | 5.02 µM | 11.7 µM | Dose-Dependent Effect | Tde | Dose-Dependent Effect | Dose-Dependent Effect
